Earlier results as cited in PubChem BioAssay AID1259409 (Chemical Carcinogenesis Research Information System (CCRIS), 2018).

Test system: rodent chemically induced tumor inhibition, incidence and multiplicity
Assay: CCRIS tumor inhibitor studies
Settings: Dose [Inhibitor]: 0

| SMILES | outcome (Carcinogen: N-BUTYL-N-(4-HYDROXYBUTYL)NITROSAMINE, 3817-11-6, 500 MG/KG BW/D FOR 24 WK BEGINNING 14 WK POST CARCINOGEN FIRST DOSE (STUDY DURATION: 38 WK), Route [Inhibitor]: ORAL, Species: RAT, Strain/Sex: WISTAR/MALE, FEMALE, Target Tissue: Type of Lesion: LIVER: TUMOR, Dose [Carcinogen]: 0.02% IN DRINKING WATER FOR FIRST 9 WK) | tumour outcome (control, treated, inhibition, significance) (Carcinogen: N-BUTYL-N-(4-HYDROXYBUTYL)NITROSAMINE, 3817-11-6, 500 MG/KG BW/D FOR 24 WK BEGINNING 14 WK POST CARCINOGEN FIRST DOSE (STUDY DURATION: 38 WK), Route [Inhibitor]: ORAL, Species: RAT, Strain/Sex: WISTAR/MALE, FEMALE, Target Tissue: Type of Lesion: URINARY BLADDER: TUMOR, Dose [Carcinogen]: 0.02% IN DRINKING WATER FOR FIRST 9 WK) | tumour outcome (control, treated, inhibition, significance) (Carcinogen: N-ETHYL-N-NITROSOUREA, 759-73-9, 500 MG/KG BW/D FOR 24 WK BEGINNING 14 WK POST CARCINOGEN FIRST DOSE (STUDY DURATION: 38 WK), Route [Inhibitor]: ORAL, Species: RAT, Strain/Sex: WISTAR/MALE, FEMALE, Target Tissue: Type of Lesion: AUDITORY SEBACEOUS GLAND: TUMOR, Dose [Carcinogen]: 20 MG/KG BW 1/WK FOR FIRST 10 WK) | tumour outcome (control, treated, inhibition, significance) (Carcinogen: N-ETHYL-N-NITROSOUREA, 759-73-9, 500 MG/KG BW/D FOR 24 WK BEGINNING 14 WK POST CARCINOGEN FIRST DOSE (STUDY DURATION: 38 WK), Route [Inhibitor]: ORAL, Species: RAT, Strain/Sex: WISTAR/MALE, FEMALE, Target Tissue: Type of Lesion: HEART: TUMOR, Dose [Carcinogen]: 20 MG/KG BW 1/WK FOR FIRST 10 WK) | tumour outcome (control, treated, inhibition, significance) (Carcinogen: N-ETHYL-N-NITROSOUREA, 759-73-9, 500 MG/KG BW/D FOR 24 WK BEGINNING 14 WK POST CARCINOGEN FIRST DOSE (STUDY DURATION: 38 WK), Route [Inhibitor]: ORAL, Species: RAT, Strain/Sex: WISTAR/MALE, FEMALE, Target Tissue: Type of Lesion: HEMATOLYMPHORETICULAR: TUMOR, Dose [Carcinogen]: 20 MG/KG BW 1/WK FOR FIRST 10 WK) | tumour outcome (control, treated, inhibition, significance) (Carcinogen: N-ETHYL-N-NITROSOUREA, 759-73-9, 500 MG/KG BW/D FOR 24 WK BEGINNING 14 WK POST CARCINOGEN FIRST DOSE (STUDY DURATION: 38 WK), Route [Inhibitor]: ORAL, Species: RAT, Strain/Sex: WISTAR/MALE, FEMALE, Target Tissue: Type of Lesion: LARGE INTESTINE: TUMOR, Dose [Carcinogen]: 20 MG/KG BW 1/WK FOR FIRST 10 WK) | outcome (Carcinogen: N-ETHYL-N-NITROSOUREA, 759-73-9, 500 MG/KG BW/D FOR 24 WK BEGINNING 14 WK POST CARCINOGEN FIRST DOSE (STUDY DURATION: 38 WK), Route [Inhibitor]: ORAL, Species: RAT, Strain/Sex: WISTAR/MALE, FEMALE, Target Tissue: Type of Lesion: LIVER: TUMOR, Dose [Carcinogen]: 20 MG/KG BW 1/WK FOR FIRST 10 WK) | tumour outcome (control, treated, inhibition, significance) (Carcinogen: N-ETHYL-N-NITROSOUREA, 759-73-9, 500 MG/KG BW/D FOR 24 WK BEGINNING 14 WK POST CARCINOGEN FIRST DOSE (STUDY DURATION: 38 WK), Route [Inhibitor]: ORAL, Species: RAT, Strain/Sex: WISTAR/MALE, FEMALE, Target Tissue: Type of Lesion: MAMMARY GLAND: TUMOR, Dose [Carcinogen]: 20 MG/KG BW 1/WK FOR FIRST 10 WK) | outcome (Carcinogen: N-ETHYL-N-NITROSOUREA, 759-73-9, 500 MG/KG BW/D FOR 24 WK BEGINNING 14 WK POST CARCINOGEN FIRST DOSE (STUDY DURATION: 38 WK), Route [Inhibitor]: ORAL, Species: RAT, Strain/Sex: WISTAR/MALE, FEMALE, Target Tissue: Type of Lesion: MESENTERY: TUMOR, Dose [Carcinogen]: 20 MG/KG BW 1/WK FOR FIRST 10 WK) | outcome (Carcinogen: N-ETHYL-N-NITROSOUREA, 759-73-9, 500 MG/KG BW/D FOR 24 WK BEGINNING 14 WK POST CARCINOGEN FIRST DOSE (STUDY DURATION: 38 WK), Route [Inhibitor]: ORAL, Species: RAT, Strain/Sex: WISTAR/MALE, FEMALE, Target Tissue: Type of Lesion: NASAL CAVITY: TUMOR, Dose [Carcinogen]: 20 MG/KG BW 1/WK FOR FIRST 10 WK) | outcome (Carcinogen: N-ETHYL-N-NITROSOUREA, 759-73-9, 500 MG/KG BW/D FOR 24 WK BEGINNING 14 WK POST CARCINOGEN FIRST DOSE (STUDY DURATION: 38 WK), Route [Inhibitor]: ORAL, Species: RAT, Strain/Sex: WISTAR/MALE, FEMALE, Target Tissue: Type of Lesion: PANCREAS: TUMOR, Dose [Carcinogen]: 20 MG/KG BW 1/WK FOR FIRST 10 WK) | tumour outcome (control, treated, inhibition, significance) (Carcinogen: N-ETHYL-N-NITROSOUREA, 759-73-9, 500 MG/KG BW/D FOR 24 WK BEGINNING 14 WK POST CARCINOGEN FIRST DOSE (STUDY DURATION: 38 WK), Route [Inhibitor]: ORAL, Species: RAT, Strain/Sex: WISTAR/MALE, FEMALE, Target Tissue: Type of Lesion: SEMINAL VESICLES: TUMOR, Dose [Carcinogen]: 20 MG/KG BW 1/WK FOR FIRST 10 WK) | tumour outcome (control, treated, inhibition, significance) (Carcinogen: N-ETHYL-N-NITROSOUREA, 759-73-9, 500 MG/KG BW/D FOR 24 WK BEGINNING 14 WK POST CARCINOGEN FIRST DOSE (STUDY DURATION: 38 WK), Route [Inhibitor]: ORAL, Species: RAT, Strain/Sex: WISTAR/MALE, FEMALE, Target Tissue: Type of Lesion: SKIN: TUMOR, Dose [Carcinogen]: 20 MG/KG BW 1/WK FOR FIRST 10 WK) | outcome (Carcinogen: N-ETHYL-N-NITROSOUREA, 759-73-9, 500 MG/KG BW/D FOR 24 WK BEGINNING 14 WK POST CARCINOGEN FIRST DOSE (STUDY DURATION: 38 WK), Route [Inhibitor]: ORAL, Species: RAT, Strain/Sex: WISTAR/MALE, FEMALE, Target Tissue: Type of Lesion: SUBCUTIS: TUMOR, Dose [Carcinogen]: 20 MG/KG BW 1/WK FOR FIRST 10 WK) | tumour outcome (control, treated, inhibition, significance) (Carcinogen: 4(METHYLNITROSAMINO)-1-(3-PYRIDYL)-1-BUTANONE, 64091-91-4, 1 UMOL IN 0.1 ML CORN OIL ONCE 2 HR PRIOR TO CARCINOGEN DOSE (STUDY DURATION: 16 WK), Route [Inhibitor]: GAVAGE, Species: MOUSE, Strain/Sex: STRAIN-A/FEMALE, Target Tissue: Type of Lesion: LUNG: ADENOMA, Dose [Carcinogen]: 10 UMOL IN 0.1 ML SALINE ONCE, Promoter: NONE USED) | tumour outcome (control, treated, inhibition, significance) (Carcinogen: 4-(METHYLNITROSAMINO)-1-(3-PYRIDYL)-1-BUTANONE, 64091-91-4, 1 UMOL ONCE 2 HR PRIOR TO CARCINOGEN DOSE (STUDY DURATION: 16 WK), Route [Inhibitor]: GAVAGE, Species: MOUSE, Strain/Sex: STRAIN-A/FEMALE, Target Tissue: Type of Lesion: LUNG: ADENOMA, Dose [Carcinogen]: 10 UMOL IN 0.1 ML SALINE ONCE, Promoter: NONE USED) | tumour outcome (control, treated, inhibition, significance) (Carcinogen: 4-(METHYLNITROSAMINO)-1-(3-PYRIDYL)-1-BUTANONE, 64091-91-4, 5 UMOL ONCE 2 HR PRIOR TO CARCINOGEN DOSE (STUDY DURATION: 16 WK), Route [Inhibitor]: GAVAGE, Species: MOUSE, Strain/Sex: STRAIN-A/FEMALE, Target Tissue: Type of Lesion: LUNG: ADENOMA, Dose [Carcinogen]: 10 UMOL IN 0.1 ML SALINE ONCE, Promoter: NONE USED) |
| --- | --- | --- | --- | --- | --- | --- | --- | --- | --- | --- | --- | --- | --- | --- | --- | --- | --- |
| COc1c(N2C[C@@H]3CCCN[C@@H]3C2)c(F)cc2c(=O)c(C(=O)O)cn(C3CC3)c12 | 0%, 1/18 (6%), -100%, not significant | 13/18 (72%), 10/18 (56%), 22%, not significant | 9/26 (35%), 4/26 (15%), 57%, not significant | 1/26 (4%), 0%, 100%, not significant | 15/26 (58%), 13/26 (50%), 14%, not significant | 9/26 (35%), 7/26 (27%), 23%, not significant | 0%, 0%, 0%, not significant | 5/26 (19%), 2/26 (8%), 58%, not significant | 0%, 1/26 (4%), -100%, not significant | 0%, 0%, 0%, not significant | 0%, 0%, 0%, not significant | 1/26 (4%), 0%, 100%, not significant | 9/26 (35%), 10/26 (39%), -11%, not significant | 0%, 0%, 0%, not significant |  |  |  |
| CCCCCCCCCCCCN=C=S |  |  |  |  |  |  |  |  |  |  |  |  |  |  | 100%, 35%, 65%, p<0.001 | 100%, 35%, 65%, p<0.05 | 100%, 25%, 75%, p<0.05 |
